The results in this text go back to patent US20230234920A1, “Azirine Containing Compounds as Anti-Angiogenesis Agents and a Process for the Preparation Thereof” (COUNCIL OF SCIENTIFIC & INDUSTRIAL RESEARCH, priority 2020, published 2023).

In one experiment the test system is HUVECs protein lysate. Description: Drug Affinity Receptor Target (DART) analysis. The class given is binding, human. As to conditions: 10 mM. The protocol:
HUVECs with confluency of 80-85% in 100 mm dish were trypsinised and the media was removed and washed twice with 1×PBS. These cells were lysed with lysis buffer at 4° C. Control and treatment group with […] of protein were incubated with vehicle and Compound 1 at a concentration of 10 mM for 15-30 mins at RT with gentle shaking. Then different proteases like thermolysin (10 μg/15 μL) and pronase at […] were added to both the control and treatment groups for 5-10 mins at RT. Digestion was stopped by adding protease inhibitor (20×) at specific interval and allowed to incubate at 4° C. for 10 mins. 6×SDS-PAGE loading dye was added to all the respective samples and heated at 70° C. for 10 mins. SDS-PAGE was performed for the given control and treatment group samples and then the gel was stained with 0.05% Coomassie Brilliant Blue (CBB-R250). After destaining the gel, bands of different molecular weight of treatment and control groups were excised off from the gel and further employed for the protein sequence analysis through LC/MS-MS (Liquid chromatography/Mass spectroscopy).

In experiment [1] the test system is HUVECs. Nature of the experiment: 3D angiogenesis assay (cytodex beads in fibrin matrix). Format: cell-based, human. The method, then: (A) ECs were seeded on fibrinogen matrix and were treated with sunitinib and compound 1 at indicated concentrations. Post 5 days of incubation pictures were taken at 10× using inverted microscope. (B) Tube length was quantified using Leica QWin software and graph was plotted taking control (0.01% DMSO) treated cells. Data are represented as mean±SEM with significant difference from control at *p<0.05, **p<0.01 and ***p<0.001.
Anti-angiogenic effect of Compound 1 was further validated by 3D angiogenesis assay (FIG. 5).
Endothelial cells (ECs) were trypsinized and then coated on cytodex beads at the rate of 1500 cells per bead in 5% DMEM medium at 37° C. for 4 h by rotating it gently on IP rotor. Fibrinogen (2 mg/mL) and Aprotonin (40 U/μL) were added to the ECs coated beads and this was subsequently added to the 96 well plate pre-coated with […] (10 U/μL) and incubated for 15 min. Vehicle control in 2.5% DMEM media with different doses of Compound 1 (500 nM, 250 nM, 125 nM and 75 nM) were used to observe the anti-angiogenic effect of Compound 1 on 3D angiogenesis pattern. Post 3 days of incubation the results were observed and photographs were taken under inverted microscope (Olympus, Centre Valley, Pa., USA) and relative tubule lengths were measured using Leica Q-Win software version 3.5.1. (Leica Microsystems, Switzerland).

The test system of experiment [2] is HUVECs. Description: Wound healing (scratch) migration assay. The class given is cell-based, human. As to conditions: for wound closure: 12 h. The protocol:
FIG. 4 represents In vitro wound closure assay showing effect of Compound 1 migration of HUVECs. (A) ECs were incubated with 2.5% FBS in the presence of VEGF, sunitinib and Compound 1 at the indicated concentrations for 24 h after linear scratched wounds were created in the confluent cells. Post treatment photographs were taken at 0 hr, 12 h and 24 h using an inverted microscope at 10×magnification. (B) Data were quantified using Image J software and graphs were plotted by calculating the % migration of that vehicle treated cells (control). Compound 1 inhibits the wound closure by ECs in a dose dependent manner. The values represent the mean±SEM from (n=3) independent experiments with significant difference compared from control at *p<0.05.
As per previous reports, some anti-angiogenic compounds also show anti-migratory effect by modulating the expression of proteins responsible for blood vessels formation. A Scratch was made to the confluent endothelial cells containing VEGF (50 ng/mL) and sunitinib (50 nM) as a positive and negative control respectively and Compound 1 at 250 nM and 125 nM as a test compound. […] This might contribute to its potent anti-angiogenic effect.
Endothelial cells were grown inside 6-well plate at a confluency rate of 90%. And then with the help of 200 μL tip a straight line scratch was made in the middle of the grown ECs. After giving a gentle wash with 1×PBS, control group received vehicle in 2.5% FBS media. VEGF at 50 ng/mL as a positive control and sunitinib at 50 nM concentration was used as a negative control. Compound 1 at a dose concentration of 250 nM and 125 nM were used onto the wounded cells to observe its anti-migratory effect. After 0 h, 12 h and 24 h of post treatment the wound closure area was observed and micrographed using an inverted microscope (Olympus, Centre Valley, Pa., USA) and were analysed by Image J software. Control well at 100% was used to express inhibition percentage and the assay was performed for three-five times independently.

Another experiment has as its system Balb/c mice. Nature of the experiment: Ear angiogenesis assay. As to conditions: 750 nM along with VEGF and bFGF. The class given is in vivo. The protocol:
(A) Control (0.1% DMSO), (B) sunitinib and (C) Compound 1 at their indicated concentration dissolved in 100 μL of 1×PBS injected into the […] of Balb/c mice (5 mice/treatment group). After 7 days of treatment ears were harvested, cryo-sectioned at […] thickness. CD31 immunostained and photographed under inverted microscope at 20× magnification. (B) Vasculature was quantified by counting total macro and micro blood vessels. Plotted graph is representative of four independent experiments and are represented as mean±SEM with significant difference compared with control at *p<0.05.
Sterile 1×PBS having mouse VEGF (50 ng/mL), bFGF (50 ng/mL), Heparin (10 mg/mL) and sunitinib (2 μM) as a positive control along with compound 1 (750 nM) as a test compound were injected subcutaneously into the ear of 8- to 12-week old male Balb/c mice. Equal volume of 1×PBS with all components except drug was used as a control and was injected in contra lateral ear. After 6 days, mice were sacrificed and the ears were excised and embedded in OCT for cryo-sectioning. Frozen sections of […] sizes were immunostained with endothelial cell markers anti CD31 and anti PECAM 1 antibody. This was quantified by total number of blood vessels count.

`CCOC(=O)C1N=C1CCc1ccc(OC)cc1` (racemic) [Compound 1, Ethyl 3-(4-methoxyphenethyl)-2H-azirine-2-carboxylate]: the “protection of protein band against protease digestion” value in the experiment on HUVECs protein lysate was “Intact protein band was observed”. Also, in the experiment with HUVECs [1] (75 nM), the tubule formation was 100%. Also, the “tubulogenesis in 3D angiogenesis” value in the experiment on HUVECs [1] (500 nM, 250 nM, 125 nM and 75 nM vs control) is on record as “tubulogenesis inhibitory effect”. Further, the values for the wound closure in the experiment with HUVECs [2] (125 nM) and with HUVECs [2] (250 nM) were 75% and 60%, respectively. Further, the migration result with HUVECs [2] (24 h) is on record as “complete migration”. Further, the “CD31 expression and micro-vessels density” value with Balb/c mice was “reduced CD31 expression and micro-vessels density”.
